Experimental data published in patent US20230123334A1, “AMINO LIPID COMPOUND, PREPARATION METHOD THEREFOR, AND APPLICATION THEREOF” (SHENZHEN SHENXIN BIOTECHNOLOGY CO., LTD., priority 2020, published 2023).

Tested on: HEK293 cells
Test: Preliminary screening as mRNA vectors, EGFP mRNA transfection of HEK293 cells
Type: cell-based
Conditions: EGFP mRNA 50 ng per well, 96-well plates; percentage of GFP fluorescent cells relative to total number of cells (Hoechst)
How it was run: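 HEK293 cells in DMEM plus 10% FBS transfected in 96-well format with 50 ng EGFP mRNA per well; Lipofectamine2000 served as positive control. Read-out is the percentage of GFP-fluorescent cells among total cells, counted by Hoechst nuclear stain.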

| Structure (SMILES) | Absolute mRNA transfection efficiency in HEK293 cells [%] |
| --- | --- |
| CCCCCCCCCCCCSc1nc(NCCCCCC)nc(NCCN2CCOCC2)n1 [Compound D2S12N6] | 0.0 |
| CCCCCCCCCCCCSc1nc(NCCCN2CCN(C)CC2)nc(SCCCCCCCC)n1 [Compound D9S8S12] | 23.6 |
| CCCCCCCCCCCCCCCSc1nc(NCCCCCCCCCCC)nc(NCCCN2CCOCC2)n1 [Compound D8S15N11] | 1.1 |
| CCCCCCCCSc1nc(NCCN(CC)CC)nc(SCCCCCCC)n1 [Compound D7S7S8] | 42.1 |
| CCCCCCCCCSc1nc(NCCCN2CCN(C)CC2)nc(SCCCCCCC)n1 [Compound D9S7S9] | 35.3 |
| CCCCCCCCCCCCCCCSc1nc(NCCN2CCOCC2)nc(SCCCCCC)n1 [Compound D2S6S15] | 6.9 |
| CCCCCCCCCSc1nc(NCCCCCC)nc(NCCN2CCOCC2)n1 [Compound D2S9N6] | 0.5 |
| CCCCCCCCCCCCCCCSc1nc(NCCCCCCC)nc(NCCCN(C)C)n1 [Compound D6S15N7] | 46.1 |
| CCCCCCCCCCCCCCSc1nc(NCCCCCCC)nc(NCCN2CCOCC2)n1 [Compound D2S14N7] | 4.5 |
| CCCCCCCCCCCCSc1nc(NCCCCCC)nc(NCCN(CC)CC)n1 [Compound D7S12N6] | 2.1 |
| CCCCCCCCCCCCCCCSc1nc(NCCCCCC)nc(NCCN2CCCCC2)n1 [Compound D4S15N6] | 1.3 |
| CCCCCCCCCCCCCNc1nc(NCCCN(C)C)nc(SCCCCCCCCCCCC)n1 [Compound D6S12N13] | 5.5 |
| CCCCCCCCCCCCCCCCNc1nc(NCCN2CCN(C)CC2)nc(SCCCCCCCCCCCC)n1 [Compound D5S12N16] | 3.7 |
| CCCCCCCCCCCCCCCCCCSc1nc(NCCCN2CCN(C)CC2)nc(SCCCCCCC)n1 [Compound D9S7S18] | 34.3 |
| CCCCCCCCCNc1nc(NCCN2CCCCC2)nc(SCCCCCCCCC)n1 [Compound D4S9N9] | 11.3 |
| CCCCCCCCCCCCCCCCNc1nc(NCCN2CCCCC2)nc(SCCCCCCCCCCCCCCCC)n1 [Compound D4S16N16] | 3.6 |
| CCCCCCCCCCCCCCCCNc1nc(NCCN2CCCC2)nc(SCCCCCCC)n1 [Compound D3S7N16] | 25.0 |
| CCCCCCCCCCCCCCSc1nc(NCCN(CC)CC)nc(SCCCCCC)n1 [Compound D7S6S14] | 3.8 |
| CCCCCCCCCCCSc1nc(NCCN2CCOCC2)nc(SCCCCCCCC)n1 [Compound D2S8S11] | 43.3 |
| CCCCCCCCCNc1nc(NCCN2CCN(C)CC2)nc(SCCCCCCCCC)n1 [Compound D5S9N9] | 38.2 |
| CCCCCCCCSc1nc(NCCCCCCC)nc(NCCN2CCCC2)n1 [Compound D3S8N7] | 0.7 |
| CCCCCCCCCCCCCCSc1nc(NCCCCCCCCC)nc(NCCN2CCCC2)n1 [Compound D3S14N9] | 51.6 |
| CCCCCCCCCCCCCCCCCCNc1nc(NCCN2CCCC2)nc(SCCCCCCCCCCCCCCCC)n1 [Compound D3S16N18] | 14.1 |

| Structure (SMILES) | Absolute mRNA transfection efficiency in HEK293 cells [%] |
| --- | --- |
| CCCCCCCCCCCCCCCCSc1nc(NCCCCCCCC)nc(NCCCN(C)C)n1 [Compound D6S16N8] | 91.5 |
| CCCCCCCCCCCCCCCNc1nc(NCCCN(C)C)nc(SCCCCCCCCCCCCCCC)n1 [Compound D6S15N15] | 0.8 |
| CCCCCCCCCNc1nc(NCCN(CC)CC)nc(SCCCCCCCCC)n1 [Compound D7S9N9] | 17.8 |
| CCCCCCCCSc1nc(NCCCN(C)C)nc(SCCCCCC)n1 [Compound D6S6S8] | 21.1 |
| CCCCCCCCCCCCNc1nc(NCCN2CCCC2)nc(SCCCCCCC)n1 [Compound D3S7N12] | 6.5 |
| CCCCCCCCCCCNc1nc(NCCCN2CCN(C)CC2)nc(SCCCCCCC)n1 [Compound D9S7N11] | 13.8 |
| CCCCCCCCCCSc1nc(NCCCCCCC)nc(NCCCN(C)C)n1 [Compound D6S10N7] | 4.4 |
| CCCCCCCCCCCCCCCCCCNc1nc(NCCN2CCOCC2)nc(SCCCCCCCCCCC)n1 [Compound D2S11N18] | 0.0 |
| CCCCCCCCCCCCCCCNc1nc(NCCN2CCN(C)CC2)nc(SCCCCCCCCC)n1 [Compound D5S9N15] | 32.9 |
| CCCCCCCCCCCCCCCCCCSc1nc(NCCCCCCCCCCC)nc(NCCN(C)C)n1 [Compound D1S18N11] | 1.3 |
| CCCCCCCSc1nc(NCCN2CCOCC2)nc(SCCCCCC)n1 [Compound D2S6S7] | 0.6 |
| CCCCCCCCCCCCCNc1nc(NCCN2CCCC2)nc(SCCCCCC)n1 [Compound D3S6N13] | 7.7 |
| CCCCCCCCSc1nc(NCCN(C)C)nc(SCCCCCC)n1 [Compound D1S6S8] | 0.7 |
| CCCCCCCCCCCCCCCNc1nc(NCCN2CCN(C)CC2)nc(SCCCCCCCCCCC)n1 [Compound D5S11N15] | 20.4 |
| CCCCCCCCCCCCCCCCCCSc1nc(NCCCN2CCOCC2)nc(SCCCCCC)n1 [Compound D8S6S18] | 12.6 |
| CCCCCCCCCCCCCCCCCCSc1nc(NCCCN(C)C)nc(SCCCCCCC)n1 [Compound D6S7S18] | 22.0 |
| CCCCCCCCCCCCCCCCSc1nc(NCCCN2CCOCC2)nc(SCCCCCCC)n1 [Compound D8S7S16] | 22.7 |
| CCCCCCCCCCCCCCCNc1nc(NCCN(C)C)nc(SCCCCCCCCCCCCCCC)n1 [Compound D1S15N15] | 0.3 |
| CCCCCCCCCCCCCCCCCCNc1nc(NCCN(CC)CC)nc(SCCCCCCC)n1 [Compound D7S7N18] | 16.7 |
| CCCCCCCCCCCCCCSc1nc(NCCN2CCCCC2)nc(SCCCCCCC)n1 [Compound D4S7S14] | 8.3 |
| CCCCCCCCCCCSc1nc(NCCCCCCCCC)nc(NCCN2CCCCC2)n1 [Compound D4S11N9] | 4.2 |
| CCCCCCCCCCCCN(CCCCCCCCCCCC)c1nc(NCCN(CC)CC)nc(SCCCCCC)n1 [D7S6^2N12] | 0.2 |
| CCCCCCCCSc1nc(NCCCCCC)nc(NCCN2CCOCC2)n1 [Compound D2S8N6] | 0.7 |

| Structure (SMILES) | Absolute mRNA transfection efficiency in HEK293 cells [%] |
| --- | --- |
| CCCCCCCCCCCCCCCCSc1nc(NCCCCCCCCCCCCCCC)nc(NCCN(CC)CC)n1 [Compound D7S16N15] | 1.1 |
| CCCCCCCCCCCCN(CCCCCCCCCCCC)c1nc(NCCN2CCOCC2)nc(SCCCCCCCCCCC)n1 [D2S11^2N12] | 0.3 |
| CCCCCCCCCSc1nc(NCCCCCCCC)nc(NCCN2CCCC2)n1 [Compound D3S9N8] | 10.4 |
| CCCCCCCCCCCCNc1nc(NCCCN(C)C)nc(SCCCCCC)n1 [Compound D6S6N12] | 3.5 |
| CCCCCCCCCCCCNc1nc(NCC2CCN(C)CC2)nc(SCCCCCC)n1 [Compound D10S6N12] | 9.6 |
| CCCCCCCCCCCCSc1nc(NCCCCCCCC)nc(NCCN2CCCCC2)n1 [Compound D4S12N8] | 1.6 |
| CCCCCCCCCCSc1nc(NCCCCCC)nc(NCCN2CCOCC2)n1 [Compound D2S10N6] | 0.1 |
| CCCCCCCCCCCCCCCSc1nc(NCCCCCCCCCCCC)nc(NCC2CCN(C)CC2)n1 [Compound D10S15N12] | 5.1 |
| CCCCCCCCSc1nc(NCCCCCCC)nc(NCCCN(C)C)n1 [Compound D6S8N7] | 4.3 |
| CCCCCCCCCCCCCCCCCCNc1nc(NCCN2CCN(C)CC2)nc(SCCCCCC)n1 [Compound D5S6N18] | 16.6 |
| CCCCCCCCSc1nc(NCCCN2CCN(C)CC2)nc(SCCCCCC)n1 [Compound D9S6S8] | 3.0 |
| CCCCCCCCCCCCCCCCNc1nc(NCCCN2CCN(C)CC2)nc(SCCCCCCCCC)n1 [Compound D9S9N16] | 16.7 |
| CCCCCCCCCCCCSc1nc(NCCCCCC)nc(NCCCN2CCN(C)CC2)n1 [Compound D9S12N6] | 0.2 |
| CCCCCCCCCCCCCCCCSc1nc(NCCCCCC)nc(NCCN(CC)CC)n1 [Compound D7S16N6] | 16.5 |
| CCCCCCCCCCCCCCCCCCNc1nc(NCCN2CCCCC2)nc(SCCCCCCCCCCCC)n1 [Compound D4S12N18] | 4.6 |
| CCCCCCCCCCCCCCCCCCNc1nc(NCCCN(C)C)nc(SCCCCCCCCCCCC)n1 [Compound D6S12N18] | 1.7 |
| CCCCCCCCCCSc1nc(NCCN2CCCCC2)nc(SCCCCCCCC)n1 [Compound D4S8S10] | 9.2 |
| CCCCCCCCCCCCCCCCSc1nc(NCCN2CCN(C)CC2)nc(SCCCCCC)n1 [Compound D5S6S16] | 60.5 |
| CCCCCCCCCSc1nc(NCCN2CCOCC2)nc(SCCCCCC)n1 [Compound D2S6S9] | 6.3 |
| CCCCCCCCCCCCSc1nc(NCCCCCCCC)nc(NCCN(CC)CC)n1 [Compound D7S12N8] | 3.0 |
| CCCCCCCCCCSc1nc(NCCCCCC)nc(NCCCN2CCOCC2)n1 [Compound D8S10N6] | 0.2 |
| CCCCCCCCCCCCCCCCNc1nc(NCCCN2CCOCC2)nc(SCCCCCCCCC)n1 [Compound D8S9N16] | 2.1 |
